Data published in paper PMC12434667 (Journal of Medicinal Chemistry, 2025).
Several values for one entry are separate records, joined by “and”; a condition that tells them apart may be missing. Identical values can stand only once.

Columns and labels:
Dog PK = format: in vivo
HCC1569 tumor xenograft = HCC1569 tumor xenograft efficacy; format: in vivo, mouse; details: 28 days; for day 28 %dTV (mean ± SEM): HCC1569 xenograft mice
[1] = Plasma PK in HCC1569 xenograft model; format: in vivo; details: mouse HCC1569 xenograft; for AUC0–24h free: mouse PPB 98.02%
CDK9 = CDK9 (Homo sapiens, UniProt P50750); experiment: 24-hr AlphaLISA of CDK9 degradation in TOV21G cells; format: cell-based
CDK4 = CDK4 (Homo sapiens, UniProt P11802); experiment: 24-hr western blot of CDK4 degradation in TOV21G cells; format: cell-based; details: read-out: TOV21G CDK4 DC50
pRB S807/811 = experiment: 24-hr AlphaLISA of pRB inhibition in MKN1 cells; format: cell-based; details: Homo sapiens, MKN-1, 24 h
human PBMC cells = experiment: Tandem mass tag deep proteome profiling; format: cell-based; details: 800 nM, 8 h, over 8000 proteins
Rat PK = format: in vivo; details: plasma, po, 10 mg/kg
pRB = experiment: Tumor AlphaLISA; format: in vivo, mouse; details: HCC1569 xenograft, sustained
CDK6 = CDK6 (Homo sapiens, UniProt Q00534); experiment: 24-hr western blot of CDK6 degradation in TOV21G cells; format: cell-based; details: read-out: TOV21G CDK6 DC50
Plasma protein binding = format: in vitro ADME; details: mouse
Monkey PK = format: in vivo
CDK1 = CDK1 (Homo sapiens, UniProt P06493); experiment: 24-hr AlphaLISA of CDK1 degradation in TOV21G cells; format: cell-based; details: vs CDK2 degradation
CDK1, sequence (P06493 whole entry): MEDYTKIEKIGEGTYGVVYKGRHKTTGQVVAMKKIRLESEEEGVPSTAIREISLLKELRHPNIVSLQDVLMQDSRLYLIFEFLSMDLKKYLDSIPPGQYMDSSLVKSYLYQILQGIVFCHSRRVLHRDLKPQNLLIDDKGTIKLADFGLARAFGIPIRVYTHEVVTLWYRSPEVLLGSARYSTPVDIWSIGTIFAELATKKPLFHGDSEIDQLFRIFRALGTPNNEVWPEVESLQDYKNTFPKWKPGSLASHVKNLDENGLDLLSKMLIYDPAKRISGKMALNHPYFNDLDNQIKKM

CDK9, sequence (P50750 whole entry): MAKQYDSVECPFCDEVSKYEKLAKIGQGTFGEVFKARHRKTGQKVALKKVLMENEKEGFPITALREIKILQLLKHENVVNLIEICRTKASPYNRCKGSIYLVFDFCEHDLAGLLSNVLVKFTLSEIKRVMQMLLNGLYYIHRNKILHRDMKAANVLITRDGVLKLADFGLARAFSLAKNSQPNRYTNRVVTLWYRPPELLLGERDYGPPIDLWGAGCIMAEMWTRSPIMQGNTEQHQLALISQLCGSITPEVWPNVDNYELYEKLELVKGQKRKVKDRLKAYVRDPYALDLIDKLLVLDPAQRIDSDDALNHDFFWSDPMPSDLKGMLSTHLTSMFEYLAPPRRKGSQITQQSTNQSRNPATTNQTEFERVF
CDK6, sequence (Q00534 whole entry): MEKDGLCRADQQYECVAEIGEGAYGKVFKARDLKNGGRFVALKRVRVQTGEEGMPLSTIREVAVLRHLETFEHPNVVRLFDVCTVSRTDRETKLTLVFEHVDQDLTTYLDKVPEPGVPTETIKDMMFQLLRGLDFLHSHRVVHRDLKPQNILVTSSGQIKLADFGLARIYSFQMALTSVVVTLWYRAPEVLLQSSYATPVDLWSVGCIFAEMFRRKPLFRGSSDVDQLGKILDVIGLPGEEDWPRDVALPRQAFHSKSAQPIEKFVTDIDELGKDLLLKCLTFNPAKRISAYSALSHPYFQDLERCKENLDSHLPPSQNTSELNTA
CDK4, sequence (P11802 whole entry): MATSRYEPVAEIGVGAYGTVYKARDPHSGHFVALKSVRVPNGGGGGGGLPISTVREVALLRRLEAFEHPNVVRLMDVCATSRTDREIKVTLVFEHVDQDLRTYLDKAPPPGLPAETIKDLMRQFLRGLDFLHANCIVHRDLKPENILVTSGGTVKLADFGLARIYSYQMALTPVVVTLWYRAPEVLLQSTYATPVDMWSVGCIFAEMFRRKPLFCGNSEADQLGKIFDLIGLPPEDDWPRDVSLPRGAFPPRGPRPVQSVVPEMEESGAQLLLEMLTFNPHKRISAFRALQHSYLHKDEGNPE

- dog F (Dog PK; IV 0.1 / PO 1 mg/kg, 1 mg/kg): 12%
- Vd (Dog PK; plasma, iv, 0.1 mg/kg): 4.2 L/kg
- clearance (Dog PK; plasma, iv, 0.1 mg/kg): 3.9 mL/min/kg
- half-life (Dog PK; plasma, iv, 0.1 mg/kg): 14.4 h
- AUC(0-t) (Dog PK; plasma, po, 1 mg/kg): 0.557 µM·h
- Cmax (Dog PK; plasma, po, 1 mg/kg): 26 nM
- AUC0–24h/D ([1]; PO 10 mg/kg BID × 3 days): 624 mg·h/mL
- AUC0–24h/D ([1]; PO 25 mg/kg BID × 3 days): 709 mg·h/mL
- AUC0–24h free ([1]; PO 25 mg/kg BID × 3 days): 14.2 ng·h/mL
- AUC0–24h/D ([1]; PO 50 mg/kg BID × 3 days): 949 mg·h/mL
- AUC0–24h free ([1]; PO 50 mg/kg BID × 3 days): 19.0 ng·h/mL
- AUC0–24h/D ([1]; PO 50 mg/kg QD × 3 days): 1377 mg·h/mL
- AUC0–24h free ([1]; PO 50 mg/kg QD × 3 days): 27.5 ng·h/mL
- DC50 (CDK9; read-out: TOV21G CDK9 DC50, 24 h): > 10000 nM
- degradation selectivity over CDK9 (CDK9; vs CDK2 degradation): > 500 fold
- DC50 (CDK4): > 10000 nM
- IC50 (pRB S807/811; read-out: MKN1 pRB IC50): 23 nM
- IC90 (pRB S807/811; read-out: MKN1 pRB IC90): 110 nM
- AUC(0-t) (Rat PK): 3.63 µM·h
- Cmax (Rat PK): 261 nM
- DC50 (CDK6): 1280 nM
- fraction unbound at 30 min, 1 µM (Plasma protein binding): 0.0198
- monkey F (Monkey PK; IV 0.07 / PO 1 mg/kg, 1 mg/kg): 12%
- Vd (Monkey PK; plasma, iv, 0.07 mg/kg): 5.7 L/kg
- clearance (Monkey PK; plasma, iv, 0.07 mg/kg): 9.1 mL/min/kg
- half-life (Monkey PK; plasma, iv, 0.07 mg/kg): 8.6 h
- AUC(0-t) (Monkey PK; plasma, po, 1 mg/kg): 0.25 µM·h
- Cmax (Monkey PK; plasma, po, 1 mg/kg): 14 nM
- degradation selectivity over CDK1 (CDK1): > 100 fold
Structure (SMILES): C[C@]1(O)CCCN(c2nc(Nc3ccc(S(=O)(=O)N[C@@H]4CCN(CC5CCN(c6ccc(C7CCC(=O)NC7=O)cc6F)CC5)C[C@@H]4F)cc3F)ncc2C(F)(F)F)C1 (stereo partly drawn) [Compound 37, N-[(3S,4R)-1-[[1-[4-(2,6-Dioxo-3-piperidyl)-2-fluoro-phenyl]-4-piperidyl]methyl]-3-fluoro-4-piperidyl]-3-fluoro-4-[[4-[(3S)-3-hydroxy-3-methyl-1-piperidyl]-5-(trifluoromethyl)pyrimidin-2-yl]amino]benzenesulfonamide]
- antitumor activity (HCC1569 tumor xenograft; 25 mg/kg PO BID): stable disease (30 to −30% is stable disease (0% = Tumor Stasis))
- day 28 %dTV (mean ± SEM) (HCC1569 tumor xenograft; 25 mg/kg PO BID): –26 ± 9%
- antitumor activity (HCC1569 tumor xenograft; 50 mg/kg PO BID): stable disease (30 to −30% is stable disease (0% = Tumor Stasis))
- day 28 %dTV (mean ± SEM) (HCC1569 tumor xenograft; 50 mg/kg PO BID): –24 ± 10%
- antitumor activity (HCC1569 tumor xenograft; 50 mg/kg PO QD): stable disease (30 to −30% is stable disease (0% = Tumor Stasis))
- significantly downregulated proteins (human PBMC cells): CDK2 as the only significantly downregulated protein
- inhibition of pRB in tumor (pRB): 90% and > 90%
